Experimental data: article PMC6270839, “Synthesis and Biological Evaluation of Novel 10-Substituted-7-ethyl-10-hydroxycamptothecin (SN-38) Prodrugs” (Molecules, 2014)
Like-named read-outs stand apart in the source and are kept apart here.

Legend:
[1] = system: SGC-7901 human gastric adenocarcinoma cancer cell line; assay: MTT in vitro antitumor (antiproliferative) assay, SGC-7901; assay type: cell-based; conditions: for IC50: Homo sapiens, SGC-7901, 72 h, read-out: IC50 SGC-7901; for fold greater antiproliferative activity (lower IC50) than irinotecan, SGC-7901 cells: IC50 ratio vs irinotecan
Procedure: (§1) The in vitro antitumor activities were evaluated on human cancer cell lines SGC-7901 and HeLa by the MTT assay, using irinotecan as the reference compound.
(§2) The in vitro antitumor activity was evaluated on two human cancer cell lines with the MTT method. SGC-7901 is a human gastric adenocarcinoma cancer cell line and HeLa is a human cervical carcinoma cell line. Cells were provided by the Jilin Province Tumor Institute. Cells were maintained in IMDM medium supplemented with 10% fetal calf serum, 2 mM glutamine, 100 U/mL penicillin, and 100 μg/mL streptomycin, at 37 °C in a humidified atmosphere containing 5% CO2. The human cancer lines SGC-7901 and HELA at a concentration of […] were incubated in a 96-well microtiter plate (100 μL in every well) for 24 h (37 °C, 5%CO2). Then the cells were incubated continuously for 72 h following various concentrations of test drugs were added. The concentrations are 50 μM, 10 μM, 2 μM, 0.4 μM, 0.08 μM, 0.016 μM, 0.0032 μM, respectively. After the 100 μL 0.05% MTT solution was added to each well, the plate was incubated for a further 4 h before removal of medium, the media removed. Formazan crystals were dissolved with 100 μL DMSO, then the absorbance was detected at 490 nm.

[2] = system: HeLa human cervical carcinoma cell line; assay: MTT in vitro antitumor (antiproliferative) assay, HeLa; assay type: cell-based; conditions: 72 h
Procedure: as §1, §2

[3] = Chemical stability of the prodrugs in PBS (HPLC); assay type: physicochemical; conditions: for Remaining Prodrugs 1 h pH 4.6 / Remaining Prodrugs 12 h pH 4.6: PBS pH 4.6, 37 °C; for Remaining Prodrugs 1 h pH 7.4 / Remaining Prodrugs 12 h pH 7.4: PBS pH 7.4, 37 °C
Procedure: They were stable at pH 4.6 at 37 °C for 12 h. Except for compound 5h, less than 35% of the prodrugs remained after incubation for 12 h in pH 7.4 buffer. […] For example, less than 30% of the prodrugs 7a–f remained, while more than 85% of the prodrugs 5a–h remained after incubation for 1 h in pH 7.4 buffer.
The stability of all compounds was investigated in PBS and human plasma by HPLC using a C18 analytical column. The mobile phase was composed of water and acetonitrile at a ratio of 70:30, respectively, containing 1% trifluoroacetic acid. The amount of the compound and its metabolite SN-38 were flowed at the rate of 0.8 mL·min^−1 and detected by the UV wavelength of 370 nm. Stability test in PBS: each compound was dissolved in PBS (pH 7.4 and pH 4.6), incubated at 37 °C and analyzed at 1, 3, 6, 12 h. Stability test in plasma: The test compounds were dissolved in DMSO and diluted to 1 mM by 0.9% physiological saline. Forty μL of each solution was added into plasma with a final concentration of 0.1 mM. The mixture was incubated in a 37 °C water bath following the vigorous vortex mixing for 15 s. Samples were analyzed at 1, 3, 6, 12 h. 400 μL of cold acetonitrile (containing 1% trifluoroacetic acid) was added to each sample, vortex-mixed for 15 s and centrifuged at 3500 rpm for 15 min at 4 °C.

AChE from electric eel = AChE from electric eel (Electrophorus electricus, UniProt O42275); assay: AChE inhibition assay (modified Ellman method); assay type: biochemical; conditions: AChE IC50, electric eel AChE, phosphate buffer pH 7.3, 37 °C
Source text: Irinotecan has been reported to be a potent inhibiter of AChE, and inhibition of this enzyme causes acute cholinergic diarrhea. Unlike irinotecan, the compounds we assayed were only weak inhibitors of AChE. […] One possible explanation is that the active site of AChE is present at the bottom of a gorge that is lined with hydrophobic amino acid residues. The terminal dipiperidino moiety in CPT-11 that interacts with amino acid residues within AChE plays a major role in enzyme inhibition, which has been confirmed by X-ray crystallographic studies.
The AChE inhibition by all compounds was studied according to a modification of the method of Ellman et al.. The activity was assayed with AChE from electric eel in the presence or absence of the test compounds in phosphate buffer (pH7.3). After the incubation at 37 °C for 1 min, 0.38 mM 5,5-dithiobisnitrobenzoic acid and 0.56 mM ATCh were added to the buffer. The changes in absorbance were read at 412 nm, per 15 s intervals for 3 min by a spectrophotometer (UV-2500, Shimadzu Corp., Kyoto, Japan).

[4] = system: human colon adenocarcinoma SW1116 xenografts; assay: Tumor growth inhibition in human colon adenocarcinoma SW1116 xenografts in nude mice; assay type: in vivo; conditions: 60 mg/kg, injection in the tumor section once per day for 6 days; for Tumor Weight: SW1116 xenograft nude mice, x ± SD
Procedure: The antitumor activity of 5e, compared with CPT-11 and SN-38, was investigated in human colon adenocarcinoma SW1116 xenografts in nude mice. The model animals were divided into four experimental groups, eight animals per group. Tested compouds were each administered by injection in the tumor section once per day for contiguous 6 days. The injection doses of test compound 5e, CPT-11, and SN-38 were 60 mg/kg, respectively. Using the vehicle group as the control, we tested the inhibitory activities of these compounds for 6 days and measured the changes in body weight and tumor size every 2 days. […] No toxic death occurred after drug treatment, and the body weight losses induced by 5e, CPT-11, and SN-38 at the given dose were similar.

AChE from electric eel, sequence (O42275 24-633): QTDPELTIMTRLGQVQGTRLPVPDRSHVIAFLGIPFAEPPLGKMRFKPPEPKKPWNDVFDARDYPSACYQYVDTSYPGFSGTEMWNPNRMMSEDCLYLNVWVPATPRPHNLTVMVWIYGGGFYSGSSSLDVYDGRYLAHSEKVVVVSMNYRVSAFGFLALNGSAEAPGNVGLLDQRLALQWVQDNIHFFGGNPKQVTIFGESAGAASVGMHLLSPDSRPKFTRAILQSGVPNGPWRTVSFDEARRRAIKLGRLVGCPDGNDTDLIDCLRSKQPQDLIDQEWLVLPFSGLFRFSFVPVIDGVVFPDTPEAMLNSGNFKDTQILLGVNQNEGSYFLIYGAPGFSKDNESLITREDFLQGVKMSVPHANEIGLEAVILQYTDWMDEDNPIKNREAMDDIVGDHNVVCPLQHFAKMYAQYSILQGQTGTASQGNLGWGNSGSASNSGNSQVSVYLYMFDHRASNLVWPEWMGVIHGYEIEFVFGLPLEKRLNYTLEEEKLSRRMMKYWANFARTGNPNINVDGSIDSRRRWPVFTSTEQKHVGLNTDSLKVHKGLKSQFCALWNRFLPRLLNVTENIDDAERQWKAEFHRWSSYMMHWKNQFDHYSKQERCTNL

| Compound | IC50 [1] | IC50 ([2]; read-out: IC50 HeLa) | Remaining Prodrugs 1 h pH 4.6 [3] | Remaining Prodrugs 12 h pH 4.6 [3] | Remaining Prodrugs 1 h pH 7.4 [3] | Remaining Prodrugs 12 h pH 7.4 [3] | IC50 (AChE from electric eel) | fold greater antiproliferative activity (lower IC50) than irinotecan, SGC-7901 cells [1] | Tumor Weight [4] | IC50 ([2]; read-out: IC50 against HeLa cells) | Inhibitory Rate ([4]; day 6, vs vehicle) |
| --- | --- | --- | --- | --- | --- | --- | --- | --- | --- | --- | --- |
| CCc1c2c(nc3ccc(OC(=O)NC(C(=O)O)C(C)C)cc13)-c1cc3c(c(=O)n1C2)COC(=O)[C@]3(O)CC (stereo partly shown) [Compound 5c, 10-OCO-(Val-OH)-SN-38] | 1880 ± 720 nM | 5.61 nM |  |  |  |  |  |  |  |  |  |
| CCc1c2c(nc3ccc(OC(=O)NC(C)C(=O)N[C@@H](CC(=O)O)C(=O)O)cc13)-c1cc3c(c(=O)n1C2)COC(=O)[C@]3(O)CC (stereo partly drawn) [Compound 7e, 10-OCO-(L-Asp-Ala-OH)-SN-38] | 210 ± 550 nM | 12.9 nM | 100% | 94.5% | 23.4% | 0% |  |  |  |  |  |
| CCc1c2c(nc3ccc(OC(=O)NCC(=O)N[C@H](CC(=O)O)C(=O)O)cc13)-c1cc3c(c(=O)n1C2)COC(=O)[C@]3(O)CC [Compound 7a, 10-OCO-(D-Asp-Gly-OH)-SN-38] | 1040 ± 900 nM | < 3.2 nM | 100% | 96.8% | 26.0% | 0% | 116000 nM |  |  |  |  |
| CCc1c2c(nc3ccc(OC(=O)NCC(=O)O)cc13)-c1cc3c(c(=O)n1C2)COC(=O)[C@]3(O)CC [Compound 5a, 10-OCO-(Gly-OH)-SN-38] | 2690 ± 110 nM | 30.4 nM | 100% | 98.4% | 85.3% | 14.8% | 19800 nM |  |  |  |  |
| CCc1c2c(nc3ccc(OC(=O)N[C@H](CC(=O)O)C(=O)O)cc13)-c1cc3c(c(=O)n1C2)COC(=O)[C@]3(O)CC [Compound 5g, 10-OCO-(L-Asp-OH)-SN-38] | 980 ± 50 nM | 9.07 nM | 100% | 94.5% | 93.9% | 34.1% | 3080 nM |  |  |  |  |
| CCc1c2c(nc3ccc(OC(=O)NC(CCC(=O)O)C(=O)O)cc13)-c1cc3c(c(=O)n1C2)COC(=O)[C@]3(O)CC (stereo partly shown) [Compound 5d, 10-OCO-(Glu-OH)-SN-38] |  |  | 98.1% | 92.5% | 85.2% | 8.6% |  |  |  |  |  |
| CCc1c2c(nc3ccc(OC(=O)NCC(=O)NC(CCC(=O)O)C(=O)O)cc13)-c1cc3c(c(=O)n1C2)COC(=O)[C@]3(O)CC (stereo partly drawn) [Compound 7c, 10-OCO-(Glu-Gly-OH)-SN-38] | 200 ± 70 nM | < 3.2 nM | 100% | 96.4% | 29.4% | 0% | > 100000 nM | 30 fold |  |  |  |
| CCc1c2c(nc3ccc(OC(=O)NC(C)C(=O)N[C@H](CC(=O)O)C(=O)O)cc13)-c1cc3c(c(=O)n1C2)COC(=O)[C@]3(O)CC (stereo partly drawn) [Compound 7d, 10-OCO-(D-Asp-Ala-OH)-SN-38] | 260 ± 640 nM | < 3.2 nM | 100% | 95.5% | 26.3% | 0% | 4440 nM | 30 fold |  |  |  |
| CCc1c2c(nc3ccc(OC(=O)NC(C)C(=O)O)cc13)-c1cc3c(c(=O)n1C2)COC(=O)[C@]3(O)CC (stereo partly shown) [Compound 5b, 10-OCO-(Ala-OH)-SN-38] | 1750 ± 600 nM | 9.85 nM |  |  |  |  |  |  |  |  |  |
| CCc1c2c(nc3ccc(OC(=O)NC(CC(C)C)C(=O)O)cc13)-c1cc3c(c(=O)n1C2)COC(=O)[C@]3(O)CC (stereo partly shown) [Compound 5e, 10-OCO-(Leu-OH)-SN-38] | 500 ± 190 nM | 1.82 nM |  |  |  |  |  |  | 0.17 ± 0.05 g/10g |  |  |
| CCc1c2c(nc3ccc(OC(=O)NC(C)C(=O)NC(CCC(=O)O)C(=O)O)cc13)-c1cc3c(c(=O)n1C2)COC(=O)[C@]3(O)CC (stereo partly drawn) [Compound 7f, 10-OCO-(Glu-Ala-OH)-SN-38] | 270 ± 180 nM | 1.57 nM | 100% | 94.7% | 14.4% | 0% | 36100 nM | 30 fold |  | < 3.2 nM |  |
| CCc1c2c(nc3ccc(OC(=O)NCC(=O)N[C@@H](CC(=O)O)C(=O)O)cc13)-c1cc3c(c(=O)n1C2)COC(=O)[C@]3(O)CC [Compound 7b, 10-OCO-(L-Asp-Gly-OH)-SN-38] | 610 ± 680 nM | 14.8 nM | 100% | 96.9% | 17.6% | 0% |  |  |  |  |  |
| CCc1c2c(nc3ccc(O)cc13)-c1cc3c(c(=O)n1C2)COC(=O)[C@]3(O)CC [SN-38, 7-ethyl-10-hydroxycamptothecin] |  |  |  |  |  |  |  |  | 0.32 ± 0.12 g/10g |  | 8.6% |
| CCc1c2c(nc3ccc(OC(=O)N[C@@H](CC(=O)O)C(=O)O)cc13)-c1cc3c(c(=O)n1C2)COC(=O)[C@]3(O)CC [Compound 5h, 10-OCO-(D-Asp-OH)-SN-38] | 240 nM | < 3.2 nM | 100% | 94.5% | 93.4% | 52.2% | 7430 nM | 30 fold |  |  |  |
| CCc1c2c(nc3ccc(OC(=O)NC(C(=O)O)C(C)CC)cc13)-c1cc3c(c(=O)n1C2)COC(=O)[C@]3(O)CC (stereo partly shown) [Compound 5f, 10-OCO-(Ile-OH)-SN-38] | 760 ± 340 nM | 3.64 nM |  |  |  |  | 1360 nM |  |  |  |  |
